Laboratory results from ChEMBL document CHEMBL1151899, “Oleanane-type isomeric triterpenoids from Barringtonia racemosa” (J Nat Prod, 2009).

What was measured:
HeLa = experiment: Cytotoxicity against human HeLa cells by MTT assay; type: functional, cell-based
[1] = Cytotoxicity against mouse P388D1 cells by MTT assay; type: functional, cell-based

Row | SMILES | IC50 (HeLa) | IC50 [1]
1 | CC1(C)C[C@H]2C3=CC[C@@H]4[C@@]5(C)CC[C@H](O)C(C)(C)[C@@H]5CC[C@@]4(C)[C@]3(C)C[C@@H](O)[C@@]2(CO)[C@@H](O)[C@@H]1O [BARRINGTOGENOL C] | > 50 µM | > 50 µM
2 | CC1(C)CC[C@]2(C(=O)O)CC[C@]3(C)C(=CC[C@@H]4[C@@]5(C)C[C@@H](O)[C@H](O)[C@@](C)(C(=O)O)[C@@H]5CC[C@]43C)[C@@H]2[C@@H]1O [BARTOGENIC ACID] | > 50 µM | > 50 µM
3 | CCC(C)C(=O)O[C@H]1[C@H](OC(C)=O)C(C)(C)C[C@H]2C3=CC[C@@H]4[C@@]5(C)CC[C@H](O)C(C)(C)[C@@H]5CC[C@@]4(C)[C@]3(C)[C@@H](O)[C@@H](O)[C@]21CO (stereo partly drawn) [ISORACEMOSOL A] | > 50 µM | > 50 µM
4 | CCC(C)C(=O)OC[C@@]12[C@H](O)[C@H](O)[C@]3(C)C(=CC[C@@H]4[C@@]5(C)CC[C@H](O)C(C)(C)[C@@H]5CC[C@]43C)[C@@H]1CC(C)(C)[C@@H](O)[C@@H]2OC(C)=O (stereo partly drawn) [RACEMOSOL A] | > 50 µM | > 50 µM
5 | CC[C@H](/C=C/[C@@H](C)[C@H]1CC[C@H]2[C@@H]3CC=C4C[C@@H](O)CC[C@]4(C)[C@H]3CC[C@]12C)C(C)C [STIGMASTEROL] | > 50 µM | > 50 µM
